Values quoted from earlier work in patent US20020148003A1, “Transgenic plant or plants with a naturally high water content overproducing at least two amino acids of the aspartate family” (AVEBE, priority 1996, published 2002).

Experiments:
[1] = biological target: plant aspartate kinase (AK) sensitive to lysine; details: plant AKs, lysine inhibition; read-out: I50 of plant AKs sensitive to lysine
E. coli DHPS = E. coli DHPS (Escherichia coli, UniProt P0A6L2); details: lysine inhibition, read-out: I50 of E. coli DHPS for lysine
Sequence of E. coli DHPS (P0A6L2 whole entry): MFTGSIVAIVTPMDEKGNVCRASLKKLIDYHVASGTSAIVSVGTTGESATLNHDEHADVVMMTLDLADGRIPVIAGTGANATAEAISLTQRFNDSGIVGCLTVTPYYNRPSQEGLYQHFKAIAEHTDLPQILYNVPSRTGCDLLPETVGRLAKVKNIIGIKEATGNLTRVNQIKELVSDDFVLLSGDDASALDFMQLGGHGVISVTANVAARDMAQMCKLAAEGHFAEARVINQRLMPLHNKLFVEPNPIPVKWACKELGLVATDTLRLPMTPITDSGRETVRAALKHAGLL

[2] = system: plant dihydrodipicolinate synthase (DHPS)

For `NCCCC[C@H](N)C(=O)O` [lysine], the IC50 [1] is listed as 100 to 700 µM, the IC50 (E. coli DHPS) is listed as roughly 1000 µM and the “sensitivity to lysine inhibition, plant DHPS versus E. coli DHPS” value ([2]; plant DHPS more sensitive than E. coli DHPS) is listed as “about 100 fold”. The “sensitivity to lysine inhibition, plant DHPS versus plant AKs” value ([2]; plant DHPS more sensitive than lysine-sensitive plant AKs) was “about 10 fold” and the IC50 ([2]; plant DHPS, feedback inhibition by end product, read-out: I50 of DHPS for lysine) was 10 to 50 µM.
